According to BindingDB's records for doi:10.1021/cb300655w (Massachusetts Institute of Technology, 2013):

How the values were obtained:
[1] = target: Bone morphogenetic protein receptor type-1A (Mus musculus, UniProt P36895)
TGF-beta receptor type-1 = target: T1, TGF-beta receptor type-1 (Mus musculus, UniProt Q64729)
T1 sequence (Q64729 whole entry): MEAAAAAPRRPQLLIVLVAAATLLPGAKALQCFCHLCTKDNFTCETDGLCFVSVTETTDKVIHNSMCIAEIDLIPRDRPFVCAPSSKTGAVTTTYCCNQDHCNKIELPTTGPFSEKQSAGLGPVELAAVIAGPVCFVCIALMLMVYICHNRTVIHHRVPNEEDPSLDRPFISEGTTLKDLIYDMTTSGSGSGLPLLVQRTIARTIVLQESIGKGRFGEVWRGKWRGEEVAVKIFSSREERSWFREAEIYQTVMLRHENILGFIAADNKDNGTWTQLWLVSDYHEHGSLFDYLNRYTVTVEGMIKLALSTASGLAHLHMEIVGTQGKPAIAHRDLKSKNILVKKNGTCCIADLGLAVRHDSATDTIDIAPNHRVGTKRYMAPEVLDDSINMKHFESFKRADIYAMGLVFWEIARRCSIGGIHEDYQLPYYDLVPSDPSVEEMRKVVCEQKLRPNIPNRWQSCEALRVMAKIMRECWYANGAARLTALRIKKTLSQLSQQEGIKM

Activin receptor type-1B = target: T2, Activin receptor type-1B (Mus musculus, UniProt Q61271)
T2 sequence (Q61271 whole entry): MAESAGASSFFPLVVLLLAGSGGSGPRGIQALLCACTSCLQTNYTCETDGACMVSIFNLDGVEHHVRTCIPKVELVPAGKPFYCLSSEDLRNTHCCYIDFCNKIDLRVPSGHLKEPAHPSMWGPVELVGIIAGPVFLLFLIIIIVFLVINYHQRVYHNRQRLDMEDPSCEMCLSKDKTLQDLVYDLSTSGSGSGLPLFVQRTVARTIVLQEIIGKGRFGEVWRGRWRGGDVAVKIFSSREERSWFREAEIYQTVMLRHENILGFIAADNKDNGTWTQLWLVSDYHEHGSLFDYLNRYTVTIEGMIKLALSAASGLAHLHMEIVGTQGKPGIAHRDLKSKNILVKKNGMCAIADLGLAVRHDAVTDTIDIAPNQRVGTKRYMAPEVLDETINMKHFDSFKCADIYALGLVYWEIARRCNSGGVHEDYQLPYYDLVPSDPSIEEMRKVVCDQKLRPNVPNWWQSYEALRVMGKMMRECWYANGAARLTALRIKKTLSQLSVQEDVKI

[2] = target: T3, Serine/threonine-protein kinase receptor R3 (Mus musculus, UniProt Q61288)
T3 sequence (Q61288 whole entry): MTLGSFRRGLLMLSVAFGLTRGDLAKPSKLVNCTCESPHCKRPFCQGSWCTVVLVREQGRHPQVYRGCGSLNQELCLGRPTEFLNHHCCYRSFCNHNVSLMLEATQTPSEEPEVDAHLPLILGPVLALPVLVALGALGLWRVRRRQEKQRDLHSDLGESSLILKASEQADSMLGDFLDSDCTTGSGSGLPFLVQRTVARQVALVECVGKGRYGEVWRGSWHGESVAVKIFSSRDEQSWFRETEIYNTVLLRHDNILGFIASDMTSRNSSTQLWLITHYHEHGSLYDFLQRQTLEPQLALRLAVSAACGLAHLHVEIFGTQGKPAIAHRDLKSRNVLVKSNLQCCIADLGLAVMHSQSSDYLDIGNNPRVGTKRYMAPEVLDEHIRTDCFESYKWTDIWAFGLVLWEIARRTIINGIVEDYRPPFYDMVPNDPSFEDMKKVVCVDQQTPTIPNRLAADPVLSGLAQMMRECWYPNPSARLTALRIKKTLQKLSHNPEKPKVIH

Activin receptor type-1 = target: T4, Activin receptor type-1 (Mus musculus, UniProt P37172)
T4 sequence (P37172 whole entry): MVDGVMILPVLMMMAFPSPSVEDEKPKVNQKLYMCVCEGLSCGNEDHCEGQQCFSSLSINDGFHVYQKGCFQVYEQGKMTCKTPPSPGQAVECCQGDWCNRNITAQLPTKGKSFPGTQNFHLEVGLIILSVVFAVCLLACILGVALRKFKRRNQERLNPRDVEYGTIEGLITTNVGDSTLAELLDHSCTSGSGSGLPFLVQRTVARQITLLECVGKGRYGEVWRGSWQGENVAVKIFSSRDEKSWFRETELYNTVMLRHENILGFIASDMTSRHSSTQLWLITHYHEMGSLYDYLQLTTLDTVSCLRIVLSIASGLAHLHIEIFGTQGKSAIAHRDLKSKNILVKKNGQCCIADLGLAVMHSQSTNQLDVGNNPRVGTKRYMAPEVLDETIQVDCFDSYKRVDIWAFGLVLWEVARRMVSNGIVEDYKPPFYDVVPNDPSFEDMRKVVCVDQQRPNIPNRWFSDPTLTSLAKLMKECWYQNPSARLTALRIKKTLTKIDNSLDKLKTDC

Bone morphogenetic protein receptor type-1A, sequence (P36895 whole entry): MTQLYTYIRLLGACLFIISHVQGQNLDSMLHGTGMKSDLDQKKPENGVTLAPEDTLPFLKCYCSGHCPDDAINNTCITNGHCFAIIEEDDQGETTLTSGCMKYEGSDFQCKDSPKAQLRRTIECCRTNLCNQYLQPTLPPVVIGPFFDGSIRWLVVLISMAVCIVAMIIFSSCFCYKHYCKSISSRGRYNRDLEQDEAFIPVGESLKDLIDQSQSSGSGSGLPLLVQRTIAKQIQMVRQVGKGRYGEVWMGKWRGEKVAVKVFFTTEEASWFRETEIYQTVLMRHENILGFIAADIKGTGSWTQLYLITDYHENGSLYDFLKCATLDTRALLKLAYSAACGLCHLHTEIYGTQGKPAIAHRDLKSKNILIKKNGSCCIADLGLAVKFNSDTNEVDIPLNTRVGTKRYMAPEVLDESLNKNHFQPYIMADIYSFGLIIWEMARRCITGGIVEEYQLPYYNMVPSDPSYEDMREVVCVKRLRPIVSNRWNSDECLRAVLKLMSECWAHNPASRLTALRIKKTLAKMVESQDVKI

SMILES | IC50 [1] [nM] | IC50 [2] [nM] | IC50 (TGF-beta receptor type-1) [nM] | IC50 (Activin receptor type-1B) [nM] | IC50 (Activin receptor type-1) [nM]
c1cc(-c2cnn3cc(-c4ccc(OCCN5CCCCC5)cc4)cnc23)ccn1 | 222 | 19.5 | 7830 | 3080 | 
CC(C)Oc1ccc(-c2cnc3c(-c4ccnc5ccccc45)cnn3c2)cc1 [4-(6-(4-isopropoxyphenyl)pyrazolo[1,5-a]pyrimidin-3-yl)quinoline] | 241 | 77.9 | 5970 | 11000 | 12.6
COc1cc(-c2cc(-c3cccc(O)c3)cnc2N)cc(OC)c1OC [K02288a] | 25.8 | 3.65 |  |  | 

Further lines, with some results ahead:

IC50 [1] [nM] | IC50 [2] [nM] | SMILES | IC50 (TGF-beta receptor type-1) [nM] | IC50 (Activin receptor type-1B) [nM] | IC50 (Activin receptor type-1) [nM]
14.3 | 1.48 | c1ccc2c(-c3cnn4cc(-c5ccc(N6CCNCC6)cc5)cnc34)ccnc2c1 [LDN-193189] | 117 |  | 
85.8 | 2.4 | c1cc(-c2cnn3cc(-c4ccc(N5CCNCC5)cc4)cnc23)c2cccnc2c1 [LDN-212854] | 9280 | 2130 | 
